The values below come from PubChem BioAssay AID1648 (Sanford-Burnham Center for Chemical Genomics, 2009).

The structures appear in SMILES notation. Calls of active or inactive are those of the source. No rule for the calls is given here. Some results are limits rather than exact numbers.

This assay deals with Serine/threonine-protein kinase mTOR (Homo sapiens) (UniProt P42345). The assay is described as follows: binders of mTOR FRB domain, biophysical, NMR (AID 1648). The conditions noted are these: NMR binding to FRB domain, chemical shift.
Serine/threonine-protein kinase mTOR (Homo sapiens), sequence (P42345 2015-2114): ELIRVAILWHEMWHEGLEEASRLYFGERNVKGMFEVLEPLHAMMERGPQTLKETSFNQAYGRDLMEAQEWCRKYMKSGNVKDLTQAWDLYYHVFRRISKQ
As for `CC(=O)O[C@@H]1C=C[C@@]2(C)C(C[C@@H](OC(C)=O)[C@@]3(C)C4=CC(=O)O[C@@H](c5ccoc5)[C@]4(C)CCC23)C1(C)C` (some centres not stated), the Kd is > 4 mM (inactive).

With `NCc1nc2ccccc2s1`, the Kd is > 4 mM (inactive).

`CC(C)(C)P(=O)(O)c1ccccc1`: the Kd is > 4 mM (inactive).

As to `Cc1cc(C(=O)NCc2ccccc2Br)no1`, the Kd was > 4 mM (inactive).

As to `O=C(NCc1ccco1)c1nc2ncccn2n1`, the Kd was > 4 mM (inactive).

For `CSc1ccn(CCC(=O)O)c(=O)n1`, the Kd was > 4 mM (inactive).

Take `CC(=O)Nc1ccc(NC(C)=O)c(C(F)(F)F)c1`: the Kd was > 4 mM (inactive).

For `Cn1c(=O)c2c(ncn2CCNC2=NCCC2)n(C)c1=O`, the Kd was > 4 mM (inactive).

On to `Cc1scc(C(=O)Nn2cnnc2)c1-c1ccccc1`, for which the Kd is > 4 mM (inactive).

For `COc1ccc2c(c1OC)OC[C@@H](c1ccc(OC)c(OC)c1OC)C2`, the Kd was > 4 mM (inactive).

Consider `NC1=NCc2ccccc21`, for which the Kd was > 4 mM (inactive).

Turning to `CC(=O)O[C@H]1C[C@@H](OC(C)=O)C(C)(C)C2CC(=O)[C@]3(C)C(CC[C@@]4(C)[C@H](c5ccoc5)OC(=O)[C@H]5O[C@]543)[C@]21C` (some centres not stated), the Kd was > 4 mM (inactive).

On to `OCC1Cc2ccccc2CN1` (configuration not stated), for which the Kd was > 4 mM (inactive).

Regarding `Cc1n[nH]c(C)c1N`, the Kd was > 4 mM (inactive).

`Nc1ccc(CN2CCS(=O)(=O)CC2)cc1`: the Kd was > 4 mM (inactive).

Regarding `COC(=O)NNc1ncnc(N)c1[N+](=O)[O-]`, the Kd is > 4 mM (inactive).

Regarding `CCCC(=O)N1CCSCC1`, the Kd was > 4 mM (inactive).

`O=C(CC1Nc2ccccc2NC1=O)Nc1ccc(O)cc1` (configuration not stated): the Kd is > 4 mM (inactive).

Take `O=C(NCc1cccc(Cl)c1)c1cnccn1`: the Kd is > 4 mM (inactive).

Consider `Cc1cc(=O)[nH]c(NCc2cccnc2)n1`, for which the Kd is > 4 mM (inactive).

As to `Cc1nc(N)sc1C(=O)N/N=C/c1ccncc1`, the Kd was > 4 mM (inactive).

With `Cc1ccc(-c2nn(C)c(=O)c3ccccc23)cc1CO`, the Kd is > 4 mM (inactive).

For `COC(=O)c1oc2ccc(Cl)cc2c1NC(C)=O`, the Kd is > 4 mM (inactive).

Turning to `O=C(O)c1scc2c1CCCC2`, the Kd is > 4 mM (inactive).

With `CC1CCC2(OC1)OC1CC3C4CC[C@H]5C[C@@H](O)CC[C@]5(C)C4CC(=O)[C@]3(C)C1C2C` (some centres not stated), the Kd is > 4 mM (inactive).

Take `CN1CCN(C(=O)c2ccccc2C(=O)O)CC1`: the Kd is > 4 mM (inactive).

Regarding `Nc1cc2ccccc2cn1`, the Kd is > 4 mM (inactive).

Regarding `O=c1oc2ccccc2cc1O`, the Kd is > 4 mM (inactive).

For the compound `O=C(COc1ccccc1O)NCCO`, the Kd is > 4 mM (inactive).

Take `CCP(=O)(CC)c1cccc(C)c1`: the Kd was > 4 mM (inactive).

Turning to `Cc1ccc(-c2c(C)n([O-])c3c([n+]2=O)CCCC3)o1`, the Kd was > 4 mM (inactive).

In the case of `CCCc1ncc(C(O)c2cccc3ccccc23)n1C` (configuration not stated), the Kd is > 4 mM (inactive).

With `Cc1cc(O)cc(=O)n1CCCC(=O)O`, the Kd was > 4 mM (inactive).

For `O=C1C2CC=CCC2C(=O)N1c1ccccc1` (configuration not stated), the Kd is > 4 mM (inactive).

For the compound `O=C(O)c1cc(=O)c2cccc(O)c2[nH]1`, the Kd is > 4 mM (inactive).

Turning to `CCOCC(=O)NCc1n[nH]c(=O)c2ccccc12`, the Kd was > 4 mM (inactive).

For `CNC(=O)CC1Sc2ccccc2NC1=O` (configuration not stated), the Kd was > 4 mM (inactive).

Take `COc1ccc(-c2cc(=O)c3c(O)cc(O[C@H]4O[C@H](CO[C@@H]5O[C@@H](C)[C@H](O)[C@@H](O)[C@H]5O)[C@@H](O)[C@H](O)[C@H]4O)cc3o2)cc1`: the Kd is > 4 mM (inactive).

As for `NCCc1ccc(S(N)(=O)=O)cc1`, the Kd is > 4 mM (inactive).

Turning to `Cn1cc(Cl)c(C(=O)Nc2ccc(F)cc2F)n1`, the Kd is > 4 mM (inactive).

On to `Cc1ccccc1NC(=O)C1CC(=O)N=C(N)S1` (configuration not stated), for which the Kd is > 4 mM (inactive).

As for `CC(=O)OC1CCC2(O)CC1(C)CCC1C2CC1(C)C` (configuration not stated), the Kd was > 4 mM (inactive).

As to `CC(=O)O[C@@H]1CC2C(C)(C)C(=O)C=C[C@]2(C)C2CC[C@]3(C)C(=CC(=O)O[C@H]3c3ccoc3)[C@@]21C` (some centres not stated), the Kd was > 4 mM (inactive).

Turning to `O=S1(=O)C=C(Nc2ccccc2)CC1`, the Kd was > 4 mM (inactive).

With `OCc1ccc2c(c1)OCCO2`, the Kd was > 4 mM (inactive).

Turning to `CCn1nccc1C(=O)Nc1ccc(Cl)cc1Cl`, the Kd was > 4 mM (inactive).

With `CC(CC(=O)O)n1cccn1` (configuration not stated), the Kd is > 4 mM (inactive).

As for `CC(C)Nc1nc2n(c(=O)n1)CCN2C(C)C`, the Kd was > 4 mM (inactive).

With `CC(=O)c1cccc(NC(=O)N2CCc3ccccc3C2)c1`, the Kd is > 4 mM (inactive).

Regarding `O=C(NC1=NCCS1)c1csc2ccccc12`, the Kd was > 4 mM (inactive).

Consider `N/N=C/c1cccnc1`, for which the Kd is > 4 mM (inactive).

For the compound `CCC(C)C(=O)O[C@@H]1C[C@@]2(C)[C@H](c3ccoc3)OC(=O)CC23OC2(C)O[C@]14[C@]1(C)[C@@H](CC(=O)OC)C5(C)CC1(O)[C@](O)(C5OC(=O)C1(C)OC1C)[C@@H](OC(C)=O)[C@]34O2` (some centres not stated), the Kd was > 4 mM (inactive).

For the compound `Cc1cc(C)n2nc(C(=O)NCc3ccco3)nc2n1`, the Kd is > 4 mM (inactive).

Turning to `Cc1ccc(/C=C2/C(=O)N=C(N)N2C)s1`, the Kd was > 4 mM (inactive).

As to `O=S1(=O)CCC(NC(=S)N2CCCCC2)C1` (configuration not stated), the Kd was > 4 mM (inactive).

Turning to `COC(=O)CCSCC(=O)Nc1nnc(C)s1`, the Kd was > 4 mM (inactive).

`CCCCCC1C(=O)CCC1CC(=O)O` (configuration not stated): the Kd was > 4 mM (inactive).

Regarding `NC(C(=O)O)C(O)C(=O)O` (configuration not stated), the Kd is > 4 mM (inactive).

Take `O=C(C1CCNCC1)N1CCCCCC1`: the Kd is > 4 mM (inactive).

For the compound `COc1ccc2ccc(=O)oc2c1CC=C(C)C`, the Kd was > 4 mM (inactive).

For `COC(=O)CSc1nnc(-c2ccc(C(=O)O)cc2)o1`, the Kd was > 4 mM (inactive).

For `NC(=O)C12CC3CC(C1)C(=O)C(C3)C2`, the Kd is > 4 mM (inactive).

For the compound `NC(=O)CSc1ccc2nnc(-c3cccs3)n2n1`, the Kd is > 4 mM (inactive).

Take `Cc1cc(C(=O)NC(C)c2ccncc2)no1` (configuration not stated): the Kd is > 4 mM (inactive).

For `O=c1nc(N2CCCCC2)nc2n1CCO2`, the Kd is > 4 mM (inactive).

As to `NCCC(=O)N[C@@H](Cc1cnc[nH]1)C(=O)O`, the Kd was > 4 mM (inactive).

Take `CS(=O)(=O)N1CCN(c2ccccc2F)CC1`: the Kd is > 4 mM (inactive).

Consider `COc1ccc(-c2cc(=O)c3c(OC(C)=O)cc(OC(C)=O)cc3o2)cc1`, for which the Kd was > 4 mM (inactive).

For the compound `Cc1nn(-c2ccccc2)nc1CN`, the Kd is > 4 mM (inactive).

`O=C(O)CSCc1ccc(Cl)cc1`: the Kd is > 4 mM (inactive).

For `CC1CC[C@]2(NC1)O[C@H]1CC3C4CC[C@H]5C[C@@H](O)CC[C@]5(C)C4CC[C@]3(C)[C@H]1[C@@H]2C` (some centres not stated), the Kd is > 4 mM (inactive).

With `O=c1[nH]c2ccc(S(=O)(=O)NC3CC3)cc2[nH]1`, the Kd is > 4 mM (inactive).
